{"source": "paper PMC9688530", "about": "“Development of Ic-ELISA and Colloidal Gold Lateral Flow Immunoassay for the Determination of Cypermethrin in Agricultural Samples” (Biosensors, 2022)", "key": {"[1]": {"system": "anti-CYP mAb 6F1G10", "experiment": "homologous ic-ELISA, hapten 1 coating antigen, mAb 6F1G10", "format": "binding, mouse", "conditions": "hapten 1 as coating antigen", "description": "(§1) The ic-ELISA procedure was executed according to previous studies. Each well of the ELISA plate was coated with 100 μL of coating antigen diluted with carbonate buffer (0.05 mol/L, pH 9.6) at 4 °C overnight. After washing three times with phosphate-buffered saline (PBS, 0.01 mol/L, pH 7.4) containing 1‰ Tween-20, the wells were blocked with 200 μL of 5% skim milk powder in PBS at 37 °C for two hours. After the same washing procedure, 50 μL of CYP standard solution and 50 μL of mAb were pipetted into each well and incubated at 37 °C for one hour. After washing five times, 100 μL per well of 0.5‰ horseradish peroxidase-labeled goat anti-mouse IgG antibody in PBS was added and incubated at 37 °C for one hour. After the wells were washed five times, 100 μL per well of fresh substrate solution (0.1 mg/mL 3,3′,5,5′-tetramethylbenzidine and 0.024‰ H2O2 in 0.1 M citrate acid buffer) was added to react at 37 °C for 15 min. Then, 50 μL per well of 0.2 mol/L H2SO4 was used to stop the reaction, and the absorbances were read at 450 nm with a microplate reader.\n(§2) After five immunizations, the anti-serum of five mice was collected to determine the serum titer. All mouse serum had high titers ranging from 1:64,000 to 1:256,000. […] Then, the sensitivity of these monoclonal antibodies was evaluated by homologous ic-ELISA. […] The subtype of mAb 2G7H9 was determined as IgG2b by a kit. […]"}, "[2]": {"parameters": "method as in doi:10.11895/j.issn.0253-3820.160428", "conditions": "cited from earlier work"}, "[3]": {"parameters": "method as in doi:10.1016/j.cropro.2009.01.003", "conditions": "cited from earlier work"}, "[4]": {"system": "monoclonal antibody", "parameters": "method as in doi:10.1080/09540105.2013.794328", "conditions": "ic-ELISA based on a monoclonal antibody; cited from earlier work"}, "[5]": {"system": "anti-CYP mAb 2G7H9", "experiment": "ic-ELISA based on mAb 2G7H9", "format": "binding, mouse", "description": "as §1\nUnder the optimal conditions, a standard curve was constructed using a series of concentrations of standard solutions (50, 25, 12.5, 6.25, 3.13, 1.56, 0.78, 0.39 and 0.20 ng/mL) to assess the sensitivity of ic-ELISA. The IC50 and linear range (IC10–IC90) were calculated by a logistic equation established with Origin Pro 8.0.\nThe CRs of the ic-ELISA were calculated with the following equation:CR (%) = (IC50 of CYP/IC50 of analogues) × 100%."}, "[6]": {"system": "anti-CYP mAb 2G9A8", "experiment": "homologous ic-ELISA, hapten 1 coating antigen, mAb 2G9A8", "format": "binding, mouse", "conditions": "hapten 1 as coating antigen", "description": "as §1, §2"}}}
{"smiles": "CC1(C)C(C=C(Cl)Cl)C1C(=O)OC(C#N)c1cccc(Oc2ccccc2)c1", "note": "(stereo not shown) [CYP, Cypermethrin]", "values": [{"measurement": "IC50", "setting": "[1]", "value": 575, "unit": "ng/mL"}, {"measurement": "sensitivity", "setting": "[2]", "value": 5000, "unit": "ng/mL"}, {"measurement": "minimum detection concentration", "setting": "[3]", "value": 800, "unit": "ng/mL"}, {"measurement": "IC50", "setting": "[4]", "value": 1.7, "unit": "ng/mL"}, {"measurement": "IC50", "setting": "[5]; hapten 5-BSA as coating antigen, before buffer optimization", "value": 5.75, "unit": "ng/mL"}, {"measurement": "IC50", "setting": "[5]; homologous ic-ELISA, hapten 1 as coating antigen", "value": 19.14, "unit": "ng/mL"}, {"measurement": "IC50", "setting": "[5]; homologous ic-ELISA, hapten 1 as coating antigen, listed as Cypermethrin", "value": 19, "unit": "ng/mL"}, {"measurement": "limit of detection (IC10)", "setting": "[5]; optimal conditions", "value": 0.40, "unit": "ng/mL"}, {"measurement": "linear range (IC10–IC90)", "setting": "[5]; optimal conditions", "value": "0.40 to 7.87", "unit": "ng/mL"}, {"measurement": "IC50", "setting": "[5]; optimal conditions, coating antigen hapten 5-BSA, PBS pH 7.4, 10% methanol, 0.3 mol/L NaCl", "value": 2.49, "unit": "ng/mL"}, {"measurement": "IC50", "setting": "[5]; working buffer: 10% Acetone", "value": 7.99, "unit": "ng/mL"}, {"measurement": "IC50", "setting": "[5]; working buffer: 10% Acetonitrile", "value": 8.88, "unit": "ng/mL"}, {"measurement": "IC50", "setting": "[5]; working buffer: 10% Dimethyl sulfoxide", "value": 11.03, "unit": "ng/mL"}, {"measurement": "IC50", "setting": "[5]; working buffer: 10% Methanol (solvent type comparison)", "value": 7.67, "unit": "ng/mL"}, {"measurement": "IC50", "setting": "[5]; working buffer: Methanol 5%", "value": 30.63, "unit": "ng/mL"}, {"measurement": "IC50", "setting": "[5]; working buffer: Methanol 20%", "value": 20.59, "unit": "ng/mL"}, {"measurement": "IC50", "setting": "[5]; working buffer: Methanol 40%", "value": 24.47, "unit": "ng/mL"}, {"measurement": "IC50", "setting": "[5]; working buffer: Na+ 0.07 mol/L", "value": 43.31, "unit": "ng/mL"}, {"measurement": "IC50", "setting": "[5]; working buffer: Na+ 0.14 mol/L", "value": 9.22, "unit": "ng/mL"}, {"measurement": "IC50", "setting": "[5]; working buffer: Na+ 0.2 mol/L", "value": 13.58, "unit": "ng/mL"}, {"measurement": "IC50", "setting": "[5]; working buffer: Na+ 0.3 mol/L", "value": 2.42, "unit": "ng/mL"}, {"measurement": "IC50", "setting": "[5]; working buffer: Na+ 0.4 mol/L", "value": 2.94, "unit": "ng/mL"}, {"measurement": "IC50", "setting": "[5]; working buffer: pH 6", "value": 4.41, "unit": "ng/mL"}, {"measurement": "IC50", "setting": "[5]; working buffer: pH 7", "value": 5.24, "unit": "ng/mL"}, {"measurement": "IC50", "setting": "[5]; working buffer: pH 7.4", "value": 3.09, "unit": "ng/mL"}, {"measurement": "IC50", "setting": "[5]; working buffer: pH 8", "value": 8.06, "unit": "ng/mL"}, {"measurement": "IC50", "setting": "[5]; working buffer: pH 9", "value": 4.03, "unit": "ng/mL"}, {"measurement": "IC50", "setting": "[6]", "value": 176, "unit": "ng/mL"}]}
